This is an account of results in patent US8729113B2 (Hoffmann-La Roche Inc., priority 2008, dated 2014).

Broadly, the Ki is a dissociation constant, usually derived from enzyme kinetics or from competition with a known ligand. Lower therefore signals higher affinity. As usually defined, the Kd is the concentration at which binding is half-saturated.

The target of the first assay is T1, TAAR1 (Mus musculus (Mouse), UniProt Q923Y8). The experiment in a line: Radioligand binding assay on TAAR1 (membranes of stably transfected HEK293 cells). Conditions: competition with [3H]-rac-2-(1,2,3,4-tetrahydro-1-naphthyl)-2-imidazoline, 4° C., 30 min. The protocol: For the construction of expression plasmids the coding sequences of human, rat and mouse TAAR 1 were amplified from genomic DNA essentially as described by Lindemann et al.. The Expand High Fidelity PCR System (Roche Diagnostics) was used with 1.5 mM Mg^2+ and purified PCR products were cloned into pCR2.1—TOPO cloning vector (Invitrogen) following the instructions of the manufacturer. PCR products were subcloned into the pIRESneo2 vector (BD Clontech, Palo Alto, Calif.), and expression vectors were sequence verified before introduction in cell lines.
T1 sequence (Q923Y8 whole entry): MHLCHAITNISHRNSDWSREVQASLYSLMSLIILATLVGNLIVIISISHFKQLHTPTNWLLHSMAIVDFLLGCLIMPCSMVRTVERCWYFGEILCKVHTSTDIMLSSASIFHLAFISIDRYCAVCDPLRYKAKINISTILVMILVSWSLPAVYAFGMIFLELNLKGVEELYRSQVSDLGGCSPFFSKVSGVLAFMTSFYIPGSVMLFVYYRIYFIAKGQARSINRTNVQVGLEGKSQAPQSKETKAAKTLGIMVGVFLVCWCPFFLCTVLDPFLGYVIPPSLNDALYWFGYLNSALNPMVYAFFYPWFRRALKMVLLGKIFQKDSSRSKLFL
HEK293 cells (ATCC # CRL-1573) were cultured essentially as described Lindemann et al. (2005). For the generation of stably transfected cell lines HEK293 cells were transfected with the pIRESneo2 expression plasmids containing the TAAR coding sequences (described above) with Lipofectamine 2000 (Invitrogen) according to the instructions of the manufacturer, and 24 hrs post transfection the culture medium was supplemented with 1 mg/ml G418 (Sigma, Buchs, Switzerland). After a culture period of about 10 d clones were isolated, expanded and tested for responsiveness to trace amines (all compounds purchased from Sigma) with the cAMP Biotrak Enzyme immunoassay (EIA) System (Amersham) following the non-acetylation EIA procedure provided by the manufacturer. […] Membrane Preparation and Radioligand Binding
(§1) Cells at confluence were rinsed with ice-cold phosphate buffered saline without Ca^2+ and Mg^2+ containing 10 mM EDTA and pelleted by centrifugation at 1000 rpm for 5 min at 4° C. The pellet was then washed twice with ice-cold phosphate buffered saline and cell pellet was frozen immediately by immersion in liquid nitrogen and stored until use at −80° C. Cell pellet was then suspended in 20 ml HEPES-NaOH (20 mM), pH 7.4 containing 10 mM EDTA, and homogenized with a Polytron (PT 3000, Kinematica) at 10,000 rpm for 10 s. The homogenate was centrifuged at 48,000×g for 30 min at 4° C. and the pellet resuspended in 20 ml HEPES-NaOH (20 mM), pH 7.4 containing 0.1 mM EDTA (buffer A), and homogenized with a Polytron at 10,000 rpm for 10 s. The homogenate was then centrifuged at 48,000×g for 30 min at 4° C. and the pellet resuspended in 20 ml buffer A, and homogenized with a Polytron at 10,000 rpm for 10 s. Protein concentration was determined by the method of Pierce (Rockford, Ill.). The homogenate was then centrifuged at 48,000×g for 10 min at 4° C., resuspended in HEPES-NaOH (20 mM), pH 7.0 including MgCl2 (10 mM) and CaCl2 g protein per ml and (2 mM) (buffer B) at 200 homogenized with a Polytron at 10,000 rpm for 10 s.
Binding assay was performed at 4° C. in a final volume of 1 ml, and with an incubation time of 30 min. The radioligand [^3H]-rac-2-(1,2,3,4-tetrahydro-1-naphthyl)-2-imidazoline was used at a concentration equal to the calculated Kd value of 60 nM to give a bound at around 0.1% of the total added radioligand concentration, and a specific binding which represented approximately 70-80% of the total binding. Non-specific binding was defined as the amount of [^3H]-rac-2-(1,2,3,4-tetrahydro-1-naphthyl)-2-imidazoline bound in the presence of the appropriate unlabelled ligand (10 μM). Competing ligands were tested in a wide range of concentrations […]. […] Each experiment was performed in duplicate. All incubations were terminated by rapid filtration through UniFilter-96 plates (Packard Instrument Company) and glass filter GF/C, pre-soaked for at least 2 h in polyethylenimine 0.3%, and using a Filtermate 96 Cell Harvester (Packard Instrument Company). The tubes and filters were then washed 3 times with 1 ml aliquots of cold buffer B. Filters were not dried and soaked in Ultima gold (45 μl/well, Packard Instrument Company) and bound radioactivity was counted by a TopCount Microplate Scintillation Counter (Packard Instrument Company).
Turning to `CC[C@@H](C[C@H]1COC(N)=N1)Oc1ccc(F)cc1` [Example 117, (S)-4-[(S)-2-(4-Fluoro-phenoxy)-butyl]-4,5-dihydro-oxazol-2-ylamine], the affinity corresponds to a Ki of 0.0032 µM.

Turning to `CCC(CC[C@H]1COC(N)=N1)c1ccc(F)cc1` (stereo partly drawn) [Example 18, (4S)-4-[3-(4-Fluoro-phenyl)-pentyl]-4,5-dihydro-oxazol-2-ylamine], the Ki was found to be 0.0026 µM.

Consider `NC1=N[C@@H](CCOc2ccc(F)c(F)c2)CO1` [Example 9, (S)-4-[2-(3,4-Difluoro-phenoxy)-ethyl]-4,5-dihydro-oxazol-2-ylamine], for which the affinity corresponds to a Ki of 0.0012 µM.

The compound `CC(CCc1ccccc1)[C@H]1COC(N)=N1` (stereo partly drawn) [Example 90, (4S)-4-(1-Methyl-3-phenyl-propyl)-4,5-dihydro-oxazol-2-ylamine] registered an inhibition constant (Ki) of 0.008 µM. This Ki is about 6.7-fold higher than that of the compound before.

In the case of `CC[C@H](OC[C@H]1COC(N)=N1)c1ccccc1` [Example 156, (S)-4-((S)-1-Phenyl-propoxymethyl)-4,5-dihydro-oxazol-2-ylamine], the affinity, expressed as Ki, was 0.0073 µM.

`CC(C)(CC[C@H]1COC(N)=N1)c1ccc(F)cc1` [Example 25, (S)-4-[3-(4-Fluoro-phenyl)-3-methyl-butyl]-4,5-dihydro-oxazol-2-ylamine] had a Ki of 0.003 µM.

Compound `C[C@@H](C[C@H]1COC(N)=N1)Oc1ccc(Oc2ccccc2)cc1` [Example 79, (S)-4-[(S)-2-(4-Phenoxy-phenoxy)-propyl]-4,5-dihydro-oxazol-2-ylamine] displayed a Ki of 0.0086 µM.

As to `NC1=N[C@@H](CCOc2cccc(OCc3ccccc3)c2)CO1` [Example 34, (S)-4-[2-(3-Benzyloxy-phenoxy)-ethyl]-4,5-dihydro-oxazol-2-ylamine], the affinity, expressed as Ki, was 0.0008 µM.

`COc1cccc(OCC[C@H]2COC(N)=N2)c1` [Example 20, (S)-4-[2-(3-Methoxy-phenoxy)-ethyl]-4,5-dihydro-oxazol-2-ylamine] returned a Ki of 0.0025 µM.

As for `C[Si](C)(CC[C@H]1COC(N)=N1)c1ccc(Cl)cc1` [Example 67, (S)-4-{2-[(4-Chloro-phenyl)-dimethyl-silanyl]-ethyl}-4,5-dihydro-oxazol-2-ylamine], the Ki was 0.0046 µM.

Take `NC1=N[C@@H](CCSc2ccc(F)cc2)CO1` [Example 150, (S)-4-[2-(4-Fluoro-phenylsulfanyl)-ethyl]-4,5-dihydro-oxazol-2-ylamine]: the Ki came out at 0.0007 µM.

`Cc1cccc(OCC[C@H]2COC(N)=N2)c1` [Example 32, (S)-4-(2-m-Tolyloxy-ethyl)-4,5-dihydro-oxazol-2-ylamine] yielded a Ki of 0.0007 µM.

Compound `CCC(CC[C@H]1COC(N)=N1)c1ccccc1` (stereo partly drawn) [Example 14, (4S)-4-(3-Phenyl-pentyl)-4,5-dihydro-oxazol-2-ylamine] displayed a Ki of 0.0056 µM.

As to `NC1=N[C@@H](CCOc2cccc(C(=O)OCc3ccccc3)c2)CO1` [Example 136, 3-[2-((S)-2-Amino-4,5-dihydro-oxazol-4-yl)-ethoxy]-benzoic acid benzyl ester], affinity was put at a Ki of 0.0004 µM.

In the case of `NC1=N[C@@H](CCOc2ccccc2Cl)CO1` [Example 6, (S)-4-[2-(2-Chloro-phenoxy)-ethyl]-4,5-dihydro-oxazol-2-ylamine], the inhibition constant Ki worked out at 0.0041 µM. Against the preceding compound, the Ki is about 10-fold higher.

Take `NC1=N[C@@H](CCCCc2ccccc2)CO1` [Example 172, (S)-4-(4-Phenyl-butyl)-4,5-dihydro-oxazol-2-ylamine]: the Ki came to 0.0015 µM.

Take `NC1=N[C@@H](CCOc2ccc(Cl)cc2F)CO1` [Example 58, (S)-4-[2-(4-Chloro-2-fluoro-phenoxy)-ethyl]-4,5-dihydro-oxazol-2-ylamine]: the Ki was 0.0041 µM. Compared with the last compound, the Ki is about 2.7-fold higher.

`CC(OC[C@H]1COC(N)=N1)c1ccccc1` (stereo partly drawn) [Example 24, (4S)-4-(1-Phenyl-ethoxymethyl)-4,5-dihydro-oxazol-2-ylamine] displayed an inhibitory constant (Ki) of 0.0084 µM.

`C[C@H](OC[C@H]1COC(N)=N1)c1ccc(F)cc1` [Example 155, (S)-4-[(S)-1-(4-Fluoro-phenyl)-ethoxymethyl]-4,5-dihydro-oxazol-2-ylamine] displayed a Ki of 0.0032 µM.

Regarding `CC[C@@H](C[C@H]1COC(N)=N1)Oc1cccc(OCc2ccccc2)c1` [Example 140, (S)-4-[(S)-2-(3-Benzyloxy-phenoxy)-butyl]-4,5-dihydro-oxazol-2-ylamine], the affinity, expressed as Ki, was 0.0009 µM.

Regarding `C[C@H](C[C@H]1COC(N)=N1)Oc1ccc(Cl)c(Cl)c1` [Example 96, (S)-4-[(R)-2-(3,4-Dichloro-phenoxy)-propyl]-4,5-dihydro-oxazol-2-ylamine], the Ki was 0.0062 µM. This Ki lies about 6.9-fold higher than the previous one.

Regarding `NC1=N[C@@H](CCC2(c3ccc(F)c(Cl)c3)CC2)CO1` [Example 91, (S)-4-{2-[1-(3-Chloro-4-fluoro-phenyl)-cyclopropyl]-ethyl}-4,5-dihydro-oxazol-2-ylamine], affinity was put at a Ki of 0.0006 µM.

In the case of `C[C@@H](C[C@H]1COC(N)=N1)Oc1ccc(Br)cc1` [Example 71, (S)-4-[(S)-2-(4-Bromo-phenoxy)-propyl]-4,5-dihydro-oxazol-2-ylamine], the Ki was 0.0024 µM.

As to `CC[C@@H](C[C@H]1COC(N)=N1)Oc1ccc2ccccc2c1` [Example 153, (S)-4-[(S)-2-(Naphthalen-2-yloxy)-butyl]-4,5-dihydro-oxazol-2-ylamine], affinity was put at a Ki of 0.0011 µM. This Ki lies about 2.2-fold lower than the previous one.

The compound `CC(C)(CC[C@H]1COC(N)=N1)c1ccccc1` [Example 7, (S)-4-(3-Methyl-3-phenyl-butyl)-4,5-dihydro-oxazol-2-ylamine] showed a Ki of 0.0032 µM. Against the preceding compound, the Ki is about 2.9-fold higher.

The next assay has as its target T1, TAAR1. Nature of the assay: Radioligand binding assay on TAAR1: Kd of the radioligand. To be noted: binding assay at 4° C.; species of TAAR1 not stated; read-out: calculated Kd value of the radioligand. The protocol:
as §1, with “The homogenate was then centrifuged at 48,000×g for 10 min at 4° C., resuspended in HEPES-NaOH (20 mM), pH 7.0 including MgCl2 (10 mM) and CaCl2 g protein per ml and (2 mM) (buffer B) at 200 homogenized with a Polytron at 10,000 rpm for 10 s.” left out
Binding assay was performed at 4° C. in a final volume of 1 ml, and with an incubation time of 30 min. […] The tubes and filters were then washed 3 times with 1 ml aliquots of cold buffer B. Filters were not dried and soaked in Ultima gold (45 μl/well, Packard Instrument Company) and bound radioactivity was counted by a TopCount Microplate Scintillation Counter (Packard Instrument Company).
In the case of `c1ccc2c(c1)CCCC2C1=NCCN1` (racemic) [[^3H]-rac-2-(1,2,3,4-tetrahydro-1-naphthyl)-2-imidazoline], the Kd was 60 nM.
